Results published in ChEMBL document CHEMBL1629695, “A novel polymyxin derivative that lacks the fatty acid tail and carries only three positive charges has strong synergism with agents excluded by the intact outer membrane” (Antimicrob Agents Chemother, 2010).
Bridge positions count the residues as written; N and C are the ends. Square brackets hold non-standard residues; d marks the D form. Peptide text beside a SMILES is read from it. * marks the point of attachment. Octanoyl = CCCCCCCC(=O)*; Dab = NCC[C@H](N)C(=O)O; Abu = CC[C@H](N)C(=O)O

Assays:
[1] = tested on: Escherichia coli; assay: Antimicrobial activity against Escherichia coli IH3080 assessed as zone of inhibition at 10 ug after 18 hrs by disk diffusion method; type: functional
[2] = tested on: Escherichia coli; assay: Antimicrobial activity against Escherichia coli IH3080 assessed as zone of inhibition at 10 ug after 18 hrs by disk diffusion method in presence of 1 ug/ml rifampin; type: functional
[3] = tested on: Acinetobacter baumannii; assay: Antimicrobial activity against Acinetobacter baumannii ATCC 19606 assessed as zone of inhibition at 10 ug after 18 hrs by disk diffusion method; type: functional
[4] = tested on: Acinetobacter baumannii; assay: Antimicrobial activity against Acinetobacter baumannii ATCC 19606 assessed as zone of inhibition at 10 ug after 18 hrs by disk diffusion method in presence of 1 ug/ml rifampin; type: functional
[5] = tested on: Pseudomonas aeruginosa; assay: Antimicrobial activity against Pseudomonas aeruginosa ATCC 27853 assessed as zone of inhibition at 10 ug after 18 hrs by disk diffusion method; type: functional
[6] = tested on: Pseudomonas aeruginosa; assay: Antimicrobial activity against Pseudomonas aeruginosa ATCC 27853 assessed as zone of inhibition at 10 ug after 18 hrs by disk diffusion method in presence of 1 ug/ml rifampin; type: functional
[7] = Drug level in Sprague-Dawley rat urine at 1 mg/kg, iv; type: ADME, organism-based; design: dose 1 mg/kg, route intravenous; conditions: Sprague-Dawley, urine, read-out: Drug uptake

Row | dose excreted [7] [%] | SMILES | inhibition zone (IZ) [1] [mm2] | inhibition zone (IZ) [2] [mm2] | inhibition zone (IZ) [3] [mm2] | inhibition zone (IZ) [4] [mm2] | inhibition zone (IZ) [5] [mm2] | inhibition zone (IZ) [6] [mm2]
1 |  | CN[C@H](C(=O)N[C@H](CO)C(=O)N[C@H]1CCNC(=O)[C@H]([C@@H](C)O)NC(=O)[C@H](CCN)NC(=O)[C@H](CCN)NC(=O)[C@H](CC(C)C)NC(=O)[C@@H](Cc2ccccc2)NC(=O)[C@H](CCN)NC1=O)[C@@H](C)O | 3 | 130 | 3 | 79 | 7 | 38
2 |  | CC(=O)N[C@H](C(=O)NCCCC(=O)N[C@H]1CCNC(=O)[C@H]([C@@H](C)O)NC(=O)[C@H](CCN)NC(=O)[C@H](CCN)NC(=O)[C@H](CC(C)C)NC(=O)[C@@H](Cc2ccccc2)NC(=O)[C@H](CCN)NC1=O)[C@@H](C)O | 3 | 8 | 3 | 9 | 3 | 3
3 |  | CC(=O)N[C@H](C(=O)N[C@H](CC(N)=O)C(=O)N[C@H]1CCNC(=O)[C@H]([C@@H](C)O)NC(=O)[C@H](CCN)NC(=O)[C@H](CCN)NC(=O)[C@H](CC(C)C)NC(=O)[C@@H](Cc2ccccc2)NC(=O)[C@H](CCN)NC1=O)[C@@H](C)O | 3 | 110 | 3 | 154 | 3 | 3
4 | 7.16 | CCCCCCCC(=O)N[C@H](C(=O)N[C@@H](CC)C(=O)N[C@H]1CCNC(=O)[C@H]([C@@H](C)O)NC(=O)[C@H](CCN)NC(=O)[C@H](CCN)NC(=O)[C@H](CC(C)C)NC(=O)[C@@H](Cc2ccccc2)NC(=O)[C@H](CCN)NC1=O)[C@@H](C)O (Octanoyl-T[Abu][Dab][Dab][dF]L[Dab][Dab]T; lactam 3-C) [listing 1 of 2 here] |  |  |  |  |  | 
5 |  | CCCCCCCC(=O)N[C@H](C(=O)N[C@@H](CC)C(=O)N[C@H]1CCNC(=O)[C@H]([C@@H](C)O)NC(=O)[C@H](CCN)NC(=O)[C@H](CCN)NC(=O)[C@H](CC(C)C)NC(=O)[C@@H](Cc2ccccc2)NC(=O)[C@H](CCN)NC1=O)[C@@H](C)O (Octanoyl-T[Abu][Dab][Dab][dF]L[Dab][Dab]T; lactam 3-C) [listing 2 of 2 here] | 32 | 206 | 3 | 252 | 2 | 55
6 | 19.4 | CCCCCCCC(=O)N[C@H](C(=O)N[C@H](CO)C(=O)N[C@H]1CCNC(=O)[C@H]([C@@H](C)O)NC(=O)[C@H](CCN)NC(=O)[C@H](CCN)NC(=O)[C@H](CC(C)C)NC(=O)[C@@H](Cc2ccccc2)NC(=O)[C@H](CCN)NC1=O)[C@@H](C)O (Octanoyl-T[dS][Dab][Dab][dF]L[Dab][Dab]T; lactam 3-C) [listing 1 of 2 here] |  |  |  |  |  | 
7 |  | CCCCCCCC(=O)N[C@H](C(=O)N[C@H](CO)C(=O)N[C@H]1CCNC(=O)[C@H]([C@@H](C)O)NC(=O)[C@H](CCN)NC(=O)[C@H](CCN)NC(=O)[C@H](CC(C)C)NC(=O)[C@@H](Cc2ccccc2)NC(=O)[C@H](CCN)NC1=O)[C@@H](C)O (Octanoyl-T[dS][Dab][Dab][dF]L[Dab][Dab]T; lactam 3-C) [listing 2 of 2 here] | 170 | 212 | 161 | 395 | 81 | 87
